Measured values from patent US20030204063A1, “Modified biological peptides with increased potency” (priority 2003, published 2003).

Tested on: CD1 mice
Experiment: Oral Glucose Tolerance Test (OGTT)
Type: in vivo
Settings: for integrated increase in blood glucose (area under the curve of delta blood glucose) over 120 min following glucose administration: fasted female CD1 mice, mean±SEM
Protocol: Oral Glucose Tolerance Test (OGTT)
Six-week old female CD1 mice (Charles River) were fasted for at least 16 hours. Mice were given 1.5 mg of glucose per gram of body weight orally in water through a gastric savage tube at t=o min and blood was collected from a tail vein at t=0, 10, 20, 30, 60, 90 and 120 min for measurement of blood glucose using a glucose meter (Lifescan). Peptides or vehicle were injected subcutaneously 5 min prior to the glucose administration. Data were expressed as the area under the curve, calculated from the change (delta) in blood glucose for each time, using the trapezoidal rule. Therefore, the data represent the integrated increase in blood glucose over a 120 min period following glucose administration. Data presented are the mean±SEM of 4 to 11 animals per group.
All peptides, including wild-type GLP-1 (7-37), were tested in the OGTT test at 3 different concentrations: 1, 5 and 10 ug per mouse. In a first set of experiments (study A), peptide 3 was tested in comparison with vehicle and hGLP-1(7-37). In a second set of experiments (study B), peptides 1 and 2 were tested in comparison with vehicle and hGLP-1 (7-37).

[1] = studies A and B, 1, 5 and 10 ug per mouse subcutaneously

hGLP(7-37) (HAEGTFTSDVSSYLEGQAAKEFIAWLVKGRG; Glucagon-like peptide 1; UniProt P01275 98-128, looked up, fragment) [wt GLP-1, wild type human glucagon-like peptide 1 (7-37), comparator in the OGTT, reference compound]
ability to completely suppress the glucose response (in words) [1]: not able to completely suppress the glucose response at any dose
effect on the glucose response (in words) [1]: dose-related decrease in the glucose response

((+,−)-cis-2-Ethylcyclopropylacetic acid-His^7)-hGLP-1 (7-37) [peptide 2]
integrated increase in blood glucose (area under the curve of delta blood glucose) over 120 min following glucose administration (study B, 5 ug per mouse subcutaneously 5 min prior to oral glucose 1.5 mg/g): −17±67 mM×120 min
integrated increase in blood glucose (area under the curve of delta blood glucose) over 120 min following glucose administration (study B, 10 ug per mouse subcutaneously 5 min prior to oral glucose 1.5 mg/g): 61±64 mM×120 min
biological potency compared with wild type GLP-1 (7-37) (in words) (study B, OGTT, subcutaneous): marked increased biological potency

(Hexanoyl-trans-3-His^7)-hGLP-1 (7-37) [peptide 3]
integrated increase in blood glucose (area under the curve of delta blood glucose) over 120 min following glucose administration (study A, 10 ug per mouse subcutaneously 5 min prior to oral glucose 1.5 mg/g): 9±26 mM×120 min
